# In patent publication US20040186166A1, “Cannabinoid analogs as peroxisome proliferator activated nuclear receptor gamma activators” (priority 2002, published 2004):
# Assays:
# [1] = test system: PPARγ2 and aP2 gene expression in 3T3 L1 cells; assay: RT-PCR of adipocyte-specific genes; assay type: cell-based; details: versus vehicle control
# Experimental: The adipocyte differentiation assay was performed as described by Mukherjee et. al. (Mol Endocrinol 14: 1425-33, 2000). The 3T3 L1 cells (American Type Culture Collection) were cultured in DMEM media supplemented with 10% calf serum. Two days after reaching confluence, cells were treated with AJA, GW347845, or vehicle (0.1% DMSO) in the presence of 10 μg/ml insulin every other day. After 10 days of treatment with AJA or 7 days with GW347845 at confluence, cells were fixed and stained with Oil Red O (Sigma). For RT-PCR, total cellular RNAs were isolated by TRIzol (Gibco). Reverse transcriptase polymerase chain reaction (RT-PCR) was performed using the superscript first-strand synthesis kit (Invitrogen). After first-strand cDNA was synthesized by use of oligo (dT), cDNA was amplified by PCR. The forward primers and reverse primers used in the amplifications were 5′-GCTGTTATGGGTGAAACTCTGGGAG-3′(SEQ ID NO: 1), and 5′-CTTCATGAGGCCTGTTGTAGAGC-3′ (SEQ ID NO:2), for PPARγ2, 5′-GAGCAAATGGAGTTCCCAGATG-3′ (SEQ ID NO: 3), and 5′-GCAAACAATGGGAATAGTTCACAGTAG-3′ (SEQ ID NO: 4), for aP2, and 5′-GACCACAGTCCATGCCATCAC-3′(SEQ ID NO: 5), and 5′-CATACCAGGAAATGAGCTGAC-3′ (SEQ ID NO: 6), for GAPDH. PCR amplifications were performed in 50 μL volume with Taq DNA polymerase for 30 cycles.
# To confirm that AJA and GW347845 induce 3T3 L1 cell differentiation into adipocytes, the expression levels of the adipocyte-specific genes PPARγ2 and aP2 were measured by RT-PCR. Total RNA was isolated after AJA or GW347845 treatment, and compared with vehicle control. Reverse transcription was conducted and the relative amounts of PPARγ2 and aP2 transcripts were measured by PCR reactions using primer sets specific to each gene. PCR products were analyzed on 1% agarose gel and stained with Ethidium Bromide. […] As a control for the induction specificity and the PCR amplification reaction, the expression levels of GADPH were measured in all samples, and found not affected by any treatment.
# [2] = test system: human IL-8 promoter; assay: IL-8 promoter luciferase assay, HeLa cells with wild type PPARγ; assay type: cell-based; details: GW347845 control
# Experimental: (§1) For PPARγ activation assay, HEK293 cells were plated in 12-well cell culture plates and maintained in Dulbecco's modified Eagle's medium (DMEM) supplemented with 10% fetal bovine serum (FBS) at 37° C. under 5% CO2. Cells were changed to phenol red-free DMEM supplemented with 10% charcoal-stripped fetal bovine serum 3 hours before transfection by a standard calcium-phosphate precipitation method. Twelve hours after transfection, the cells were washed with phosphate-buffered saline (PBS) and fed again with fresh medium containing the indicated concentrations of compounds. After 36 hours, cells were harvested for β-galactosidase and luciferase activities as described previously (Li et al., Proc Natl Acad Sci USA 94:8479-84, 1997). The average normalized luciferase activity was determined via triplicate experiments. For IL-8 promoter assay, HeLa cells were maintained and transfected in the same way as described above. After transfection, cells were recovered for 4 hours before treatment with AJA, GW347845, or solvent. After 3-4 hours, cells were treated with or without 25 nM of phorbol myristate acetate (PMA) for 24 hours.
# The IL-8 luciferase reporter controlled by the human IL-8 promoter (-97/-69) was cotransfected with mPPARγ or mPPARγ ΔAF2 mutant into HeLa cells. After transfection, cells were treated with AJA, GW347845 or solvent after PMA treatment for 24 hours. This was performed by determining the effect of AJA on IL-8 promoter activity and the role of PPARγ in this process. IL-8 is a biomarker for inflammation, and reduction of IL-8 levels correlates with a decrease in inflammation. The involvement of PPARγ in regulating IL-8 promoter activity was determined by comparing the IL-8 promoter activity in the presence of wild type PPARγ or its ΔAF2 mutant. In the experiment illustrated in FIG. 6A, PMA stimulated IL-8 promoter activity 3 fold, which was set as 100% promoter activity.
# [3] = test system: 3T3 L1 fibroblasts; assay: Adipocyte differentiation assay, Oil Red O staining; assay type: cell-based; details: 1 μM GW347845, 7 days, 10 μg/ml insulin
# Experimental: The adipocyte differentiation assay was performed as described by Mukherjee et. al. (Mol Endocrinol 14: 1425-33, 2000). The 3T3 L1 cells (American Type Culture Collection) were cultured in DMEM media supplemented with 10% calf serum. Two days after reaching confluence, cells were treated with AJA, GW347845, or vehicle (0.1% DMSO) in the presence of 10 μg/ml insulin every other day. After 10 days of treatment with AJA or 7 days with GW347845 at confluence, cells were fixed and stained with Oil Red O (Sigma). For RT-PCR, total cellular RNAs were isolated by TRIzol (Gibco). Reverse transcriptase polymerase chain reaction (RT-PCR) was performed using the superscript first-strand synthesis kit (Invitrogen). After first-strand cDNA was synthesized by use of oligo (dT), cDNA was amplified by PCR. […]
# 3T3 L1 fibroblasts cells were cultured in DMEM supplemented with 10% calf serum. […] The cells were treated for 10 days with AJA, or 7 days with GW347845, and lipid accumulation in cells was assessed by Oil Red O staining.
# [4] = test system: human IL-8 promoter; assay: IL-8 promoter luciferase assay, HeLa cells with PPARγ ΔAF2 mutant; assay type: cell-based; details: cells transfected with PPARγ ΔAF2 mutant
# Experimental: as §1, with “After 3-4 hours, cells were treated with or without 25 nM of phorbol myristate acetate (PMA) for 24 hours.” left out
# The IL-8 luciferase reporter controlled by the human IL-8 promoter (-97/-69) was cotransfected with mPPARγ or mPPARγ ΔAF2 mutant into HeLa cells. […] The involvement of PPARγ in regulating IL-8 promoter activity was determined by comparing the IL-8 promoter activity in the presence of wild type PPARγ or its ΔAF2 mutant. […]
# [5] = target: T1, PPARγ (Homo sapiens, UniProt P37231); assay: Activation of PPARγ by natural cannabinoids (no method given)
# T1 sequence (P37231 1-505): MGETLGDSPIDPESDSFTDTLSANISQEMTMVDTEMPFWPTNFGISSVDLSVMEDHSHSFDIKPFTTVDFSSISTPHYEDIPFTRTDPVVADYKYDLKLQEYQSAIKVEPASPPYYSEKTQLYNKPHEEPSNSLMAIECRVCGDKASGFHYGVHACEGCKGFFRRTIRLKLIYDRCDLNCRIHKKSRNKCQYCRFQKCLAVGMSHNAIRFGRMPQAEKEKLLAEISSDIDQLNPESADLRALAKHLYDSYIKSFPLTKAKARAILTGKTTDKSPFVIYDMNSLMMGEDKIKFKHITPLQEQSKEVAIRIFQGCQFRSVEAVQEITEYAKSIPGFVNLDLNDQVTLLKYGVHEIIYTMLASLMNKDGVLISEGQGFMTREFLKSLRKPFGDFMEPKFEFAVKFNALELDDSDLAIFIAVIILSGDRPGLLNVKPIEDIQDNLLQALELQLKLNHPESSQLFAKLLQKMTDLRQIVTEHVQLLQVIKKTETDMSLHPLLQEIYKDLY
SMILES,PPARγ2 gene expression [1],aP2 gene expression [1],reduction of IL-8 promoter activity [2],"lipid accumulation, Oil Red O staining [3]",effect on IL-8 promoter activity [4],activation of PPARγ [5]
"COC(=O)c1ccccc1N[C@@H](Cc1ccc(OCCc2nc(-c3ccccc3)oc2C)cc1)C(=O)O [GW347845, reference compound]",enhanced PPARγ2 and aP2 gene expression significantly,enhanced PPARγ2 and aP2 gene expression significantly,dramatically reduced IL-8 promoter activity,dramatic increase in lipid droplet staining,not with the ΔAF2 mutant,
"CCCCCc1cc(O)c2c(c1)OC(C)(C)[C@@H]1CCC(C)=C[C@@H]21 [THC, Tetrahydrocannabinol]",,,,,,also activate PPARγ
